pIC50: −log10 of the molar value.
Tests used:
[1] = molecular target: GDP-bound NRAS wild-type protein (Homo sapiens, UniProt P01111); assay: Binding to NRAS by surface plasmon resonance (SPR), KD and KD ratio to KRAS; settings: ratio of KD for GDP-bound NRAS wild-type protein to KD for KRAS
In short: (§1)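 Recombinant RAS proteins bearing a biotinylated Avi tag and loaded with GDP served as the captured ligand, recaptured fresh every cycle. Binding responses were referenced to an uncoated surface and a buffer-only blank cycle. Dissociation constants were obtained by 1:1 model fitting at 30°C.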

[2] = tested on: human lung cancer strain NCI-H441; format: cell-based
In short: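 Signal came from […] measured per well once the reagent was added. Beforehand, cells were cultured at 37°C and 5% carbon dioxide on a compound series serially diluted in dimethyl sulfoxide.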

HRAS wild-type protein = HRAS wild-type protein (Homo sapiens, UniProt P01112); assay: Binding to HRAS by surface plasmon resonance (SPR), KD and KD ratio to KRAS; settings: ratio of KD for HRAS wild-type protein to KD for KRAS
In short: as §1

Sequence of GDP-bound NRAS wild-type protein (P01111 whole entry): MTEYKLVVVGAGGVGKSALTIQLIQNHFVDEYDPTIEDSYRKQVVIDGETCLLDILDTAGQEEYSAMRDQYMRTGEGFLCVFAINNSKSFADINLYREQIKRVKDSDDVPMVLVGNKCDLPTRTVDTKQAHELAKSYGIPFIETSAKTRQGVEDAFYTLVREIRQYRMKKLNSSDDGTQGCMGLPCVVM
Sequence of HRAS wild-type protein (P01112 whole entry): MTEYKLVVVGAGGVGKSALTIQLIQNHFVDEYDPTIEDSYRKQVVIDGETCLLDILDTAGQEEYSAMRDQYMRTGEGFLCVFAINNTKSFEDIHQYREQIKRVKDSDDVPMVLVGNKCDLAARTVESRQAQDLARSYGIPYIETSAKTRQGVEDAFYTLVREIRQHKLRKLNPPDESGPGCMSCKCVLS

Row | Compound | NRAS /KRAS [1] | pIC50 [2] | HRAS /KRAS (HRAS wild-type protein)
1 | CCO[C@@H]1C[C@H]2C(=O)NC3(CCC3)C(=O)N(C)[C@@H](C3CCCC3)C(=O)N(C)[C@H](C(=O)N3CCCCC3)CC(=O)N(C)[C@H]3CCC/C=C/c4ccc(cc4)C[C@@H](C(=O)N(C)CC(=O)N[C@@H](CCc4cc(F)c(C(F)(F)F)c(F)c4)C(=O)N2C1)N1CC/C=C\C[C@@H](C1=O)N(C)C(=O)CN(C1CC1)C(=O)[C@H]([C@@H](C)CC)NC3=O [PP2954] | A (a compound having 10 or more and less than 20 is denoted as A) | 7.78 | A (a compound having 10 or more and less than 20 is denoted as A)
2 | CCO[C@@H]1C[C@H]2C(=O)NC3(CCC3)C(=O)N(C)[C@@H](C(CC)CC)C(=O)N(C)[C@H](C(=O)N3CCCCC3)CC(=O)N(C)[C@H]3CCC/C=C/c4ccc(cc4)C[C@@H](C(=O)N(C)CC(=O)N[C@@H](CCc4cc(F)c(C(F)(F)F)c(F)c4)C(=O)N2C1)N1CC/C=C\C[C@@H](C1=O)N(C)C(=O)CN(C1CC1)C(=O)[C@H]([C@@H](C)CC)NC3=O [PP2956] | AA (a compound having 20 or more is denoted as AA) | 7.56 | A (a compound having 10 or more and less than 20 is denoted as A)
3 | CCO[C@@H]1C[C@H]2C(=O)NC3(CCC3)C(=O)N(C)[C@@H](C(CC)CC)C(=O)N(C)[C@H](C(=O)N3CCCC3)CC(=O)N(C)[C@H]3CCC/C=C/c4ccc(cc4)C[C@@H](C(=O)N(C)CC(=O)N[C@@H](CCc4cc(F)c(C(F)(F)F)c(F)c4)C(=O)N2C1)N1CC/C=C\C[C@@H](C1=O)N(C)C(=O)CN(C1CC1)C(=O)[C@H]([C@@H](C)CC)NC3=O [PP2957] | AA (a compound having 20 or more is denoted as AA) | 8.34 | A (a compound having 10 or more and less than 20 is denoted as A)
4 | CCC(CC)[C@H]1C(=O)N(C)[C@H](C(=O)N(C)C)CC(=O)N(C)[C@@H](COC)C(=O)N[C@@H]([C@@H](C)CC)C(=O)N(C)CC(=O)N(C)[C@H]2C/C=C\CCN(C2=O)[C@@H](Cc2ccc(C(F)(F)F)cc2)C(=O)N(C)CC(=O)N[C@@H](CCc2cc(F)c(C(F)(F)F)c(F)c2)C(=O)N2CC3(CC3)C[C@H]2C(=O)NC2(CC(C)(C)C2)C(=O)N1C [PP2961] | AA (a compound having 20 or more is denoted as AA) | 7.86 | A (a compound having 10 or more and less than 20 is denoted as A)
5 | CCC[C@H]1C(=O)N[C@@H]([C@@H](C)CC)C(=O)N(C)CC(=O)N(C)[C@H]2C/C=C\CCN(C2=O)[C@@H](Cc2ccc(C)cc2)C(=O)N(C)CC(=O)N[C@@H](CCc2ccc(Cl)c(Cl)c2)C(=O)N2CCCCC[C@H]2C(=O)NC2(CC(C)(C)C2)C(=O)N(C)[C@@H](C(CC)CC)C(=O)N(C)[C@H](C(=O)N(C)C)CC(=O)N1C [PP2962] | AA (a compound having 20 or more is denoted as AA) | 7.41 | A (a compound having 10 or more and less than 20 is denoted as A)
6 | CCC(CC)[C@H]1C(=O)N(C)[C@H](C(=O)N(C)C)CC(=O)N(C)[C@@H](COC)C(=O)N[C@@H]([C@@H](C)CC)C(=O)N(C)CC(=O)N(C)[C@H]2C/C=C\CCN(C2=O)[C@@H](Cc2ccc(C)cc2)C(=O)N(C)CC(=O)N[C@@H](CCc2cc(F)c(C(F)(F)F)c(F)c2)C(=O)N2CC3(CC3)C[C@H]2C(=O)NC2(CC(C)(C)C2)C(=O)N1C [PP2963] | AA (a compound having 20 or more is denoted as AA) | 7.87 | A (a compound having 10 or more and less than 20 is denoted as A)
7 | CCC[C@H]1C(=O)N[C@@H]([C@@H](C)CC)C(=O)N(C)CC(=O)N(C)[C@H]2C/C=C\CCN(C2=O)[C@@H](Cc2ccc(C(F)(F)F)cc2)C(=O)N(C)CC(=O)N[C@@H](CCc2ccc(C(F)(F)F)c(Cl)c2)C(=O)N2CCCCC[C@H]2C(=O)NC2(CC(C)(C)C2)C(=O)N(C)[C@@H](C(CC)CC)C(=O)N(C)[C@H](C(=O)N(C)C)CC(=O)N1C [PP2964] | AA (a compound having 20 or more is denoted as AA) | 7.30 | A (a compound having 10 or more and less than 20 is denoted as A)
8 | CCC(CC)[C@H]1C(=O)N(C)[C@H](C(=O)N(C)C)CC(=O)N(C)[C@@H](COC)C(=O)N[C@@H]([C@@H](C)CC)C(=O)N(C)CC(=O)N(C)[C@H]2C/C=C\CCN(C2=O)[C@@H](Cc2ccc(C(F)(F)F)cc2)C(=O)N(C)CC(=O)N[C@@H](CCc2ccc(C(F)(F)F)c(Cl)c2)C(=O)N2CC3(CC3)C[C@H]2C(=O)NC2(CC(C)(C)C2)C(=O)N1C [PP2965] | AA (a compound having 20 or more is denoted as AA) | 7.57 | A (a compound having 10 or more and less than 20 is denoted as A)
9 | CCC[C@H]1C(=O)N[C@@H]([C@@H](C)CC)C(=O)N(C)CC(=O)N(C)[C@H]2C/C=C\CCN(C2=O)[C@@H](Cc2ccc(C(F)(F)F)cc2)C(=O)N(C)CC(=O)N[C@@H](CCc2ccc(C(F)(F)F)c(OC)c2)C(=O)N2CCCCC[C@H]2C(=O)NC2(CC(C)(C)C2)C(=O)N(C)[C@@H](C(CC)CC)C(=O)N(C)[C@H](C(=O)N(C)C)CC(=O)N1C [PP2968] | AA (a compound having 20 or more is denoted as AA) | 7.53 | A (a compound having 10 or more and less than 20 is denoted as A)
10 | CCC[C@H]1C(=O)N[C@@H]([C@@H](C)CC)C(=O)N(C)CC(=O)N(C)[C@H]2C/C=C\CCN(C2=O)[C@@H](Cc2ccc(C(F)(F)F)cc2)C(=O)N(C)CC(=O)N[C@@H](CCc2ccc(C(F)(F)F)c(Cl)c2)C(=O)N2C[C@H](OCC)C[C@H]2C(=O)NC2(CC(C)(C)C2)C(=O)N(C)[C@@H](CC(C)(C)C)C(=O)N(C)[C@H](C(=O)N(C)C)CC(=O)N1C [PP2969] | AA (a compound having 20 or more is denoted as AA) | 8.57 | A (a compound having 10 or more and less than 20 is denoted as A)
11 | CCC[C@H]1C(=O)N[C@@H](C2CCCC2)C(=O)N(C)CC(=O)N(C)[C@H]2C/C=C\CCN(C2=O)[C@@H](Cc2ccc(C(F)(F)F)cc2)C(=O)N(C)CC(=O)N[C@@H](CCc2ccc(C(F)(F)F)c(Cl)c2)C(=O)N2C[C@H](OCC)C[C@H]2C(=O)NC2(CC(C)(C)C2)C(=O)N(C)[C@@H](CC(C)(C)C)C(=O)N(C)[C@H](C(=O)N(C)C)CC(=O)N1C [PP2971] | A (a compound having 10 or more and less than 20 is denoted as A) | 8.29 | A (a compound having 10 or more and less than 20 is denoted as A)
12 | CCC(CC)[C@H]1C(=O)N(C)[C@H](C(=O)N(C)C)CC(=O)N(C)[C@@H](COC)C(=O)N[C@@H]([C@@H](C)CC)C(=O)N(C)CC(=O)N(C)[C@H]2C/C=C\CCN(C2=O)[C@@H](Cc2ccc(C(F)(F)F)cc2)C(=O)N(C)CC(=O)N[C@@H](CCc2ccc(Cl)c(Cl)c2)C(=O)N2CCCCC[C@H]2C(=O)NC2(CC(C)(C)C2)C(=O)N1C [PP2972] | AA (a compound having 20 or more is denoted as AA) | 7.09 | A (a compound having 10 or more and less than 20 is denoted as A)
13 | CCC[C@H]1C(=O)N[C@@H]([C@@H](C)CC)C(=O)N(C)CC(=O)N(C)[C@H]2C/C=C\CCN(C2=O)[C@@H](Cc2ccc(C(F)(F)F)cc2)C(=O)N(C)CC(=O)N[C@@H](CCc2ccc(C(F)(F)F)c(Cl)c2)C(=O)N2C[C@H](OCC)C[C@H]2C(=O)NC2(CC(C)(C)C2)C(=O)N(C)[C@@H]([C@@H](C)CC)C(=O)N(C)[C@H](C(=O)N(C)C)CC(=O)N1C [PP2973] | A (a compound having 10 or more and less than 20 is denoted as A) | 8.10 | A (a compound having 10 or more and less than 20 is denoted as A)
14 | CCC[C@H]1C(=O)N[C@@H]([C@@H](C)CC)C(=O)N(C)CC(=O)N(C)[C@H]2C/C=C\CCN(C2=O)[C@@H](Cc2ccc(C(F)(F)F)cc2)C(=O)N(C)CC(=O)N[C@@H](CCc2ccc(C(F)(F)F)c(Cl)c2)C(=O)N2C[C@H](OCC)C[C@H]2C(=O)NC2(CC(C)(C)C2)C(=O)N(C)[C@@H](CC(F)(F)F)C(=O)N(C)[C@H](C(=O)N(C)C)CC(=O)N1C [PP2975] | A (a compound having 10 or more and less than 20 is denoted as A) | 7.78 | A (a compound having 10 or more and less than 20 is denoted as A)
15 | C#CC[C@H]1C(=O)N[C@@H]([C@@H](C)CC)C(=O)N(C)CC(=O)N(C)[C@H]2C/C=C\CCN(C2=O)[C@@H](Cc2ccc(C(F)(F)F)cc2)C(=O)N(C)CC(=O)N[C@@H](CCc2cc(F)c(C(F)(F)F)c(F)c2)C(=O)N2CC3(CC3)C[C@H]2C(=O)NC2(CC(C)(C)C2)C(=O)N(C)[C@@H](C2CCCC2)C(=O)N(C)[C@H](C(=O)N(C)C)CC(=O)N1C [PP2976] | A (a compound having 10 or more and less than 20 is denoted as A) | 8.06 | B (a compound having 3 or more and less than 10 is denoted as B)
16 | CCC[C@H]1C(=O)N[C@@H]([C@@H](C)CC)C(=O)N(C)CC(=O)N(C)[C@H]2C/C=C\CCN(C2=O)[C@@H](Cc2ccc(C(F)(F)F)cc2)C(=O)N(C)CC(=O)N[C@@H](CCc2ccc(C(F)(F)F)c(Cl)c2)C(=O)N2C[C@H](OCC)C[C@H]2C(=O)NC2(CC(C)(C)C2)C(=O)N(C)[C@@H](CC(C)C)C(=O)N(C)[C@H](C(=O)N(C)C)CC(=O)N1C [PP2977] | A (a compound having 10 or more and less than 20 is denoted as A) | 8.09 | A (a compound having 10 or more and less than 20 is denoted as A)
